Results from patent US10106515B2, “1-(cyclopent-2-en-1-yl)-3-(2-hydroxy-3-(arylsulfonyl)phenyl)urea derivatives as CXCR2 inhibitors” (GLAXOSMITHKLINE INTELLECTUAL PROPERTY DEVELOPMENT LIMITED, priority 2014, dated 2018).

Tests used:
recombinant human CXCR2 = target: T1, recombinant human CXCR2 (Homo sapiens, UniProt P25025); test: CXCR2 Tango assay; format: cell-based; conditions: mean pIC50 of multiple test results; stimulated with 80 nM hCXCL1; reporter gene blue/green emission ratio; read-out: pIC50 (CXCR2 Tango assay) (converted)
T1 construct: TEV protease site; Gal4-VP16 transcription factor
T1 sequence (P25025 1-360): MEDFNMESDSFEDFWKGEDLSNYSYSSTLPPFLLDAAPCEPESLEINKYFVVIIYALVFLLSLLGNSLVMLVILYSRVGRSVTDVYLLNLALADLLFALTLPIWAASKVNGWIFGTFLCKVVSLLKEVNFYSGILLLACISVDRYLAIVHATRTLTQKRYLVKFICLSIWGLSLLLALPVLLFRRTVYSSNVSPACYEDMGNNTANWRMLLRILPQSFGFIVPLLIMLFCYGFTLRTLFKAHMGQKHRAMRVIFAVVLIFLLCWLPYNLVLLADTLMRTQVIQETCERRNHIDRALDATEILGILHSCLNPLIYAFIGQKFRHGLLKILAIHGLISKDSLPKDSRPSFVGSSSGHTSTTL
In short: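 A stable cell line carries human CXCR2 fused to a TEV site and Gal4-VP16, with protease-tagged arrestin. Cells (~10,000/well) were stimulated overnight at 37 °C with 80 nM hCXCL1 and a 10-point compound dilution. CCF4-AM beta-lactamase FRET (460/530 nm ratio) was read, normalized to hCXCL1 and DMSO, and mean pIC50 reported.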

[1] = system: upregulation of CD11b in GROα stimulated neutrophils in human whole blood; test: Human whole blood assay (CD11b upregulation); format: cell-based; conditions: Neutrophil, inhibition of CD11b upregulation, GROα 33 nM final, flow cytometry, read-out: pIC50 (human whole blood assay) (converted)
Method: The whole blood assay tested the compounds' ability to inhibit the upregulation of CD11b in GROα stimulated neutrophils in human whole blood.
Blood was withdrawn by venipuncture from consented adults and poured into a Sterilin tube containing an anti-coagulant Heparin (10 uL/mL of blood). All the test compounds were dissolved in DMSO to 4 mM and serial diluted across the plate, 1 in 3 to provide 10 point dose response curves. The compounds were then diluted 100 fold in -PBS [Phosphate buffered saline (without Calcium Chloride and Magnesium Chloride)] after which, 1 uL was dispensed in 96 U bottom Costar plates using an FX.
10 uL of blood was transferred to the compound plate using a multi-channel pipette, gently tapped and incubated for 15 minutes, at 37° C. After 15 minutes, the stimulant GROα was diluted to 100 nM in 0.1% BSA (Albumin Bovine Serum)-PBS and 5 uL is dispensed across the whole plate for a final concentration of 33 nM. The plate was gently tapped and incubated further for 15 minutes at 37° C. The plate was placed on ice for 1 minute before addition of 10 uL of an antibody cocktail consisting of CD11b-FITC (40 ug/mL) purchased from BioLegend (address: Cambridge Bioscience, Munro House, Trafalgar Way, Bar Hill, Cambridge, UK) and CD16-PE purchased from BD Pharmingen (address: The Danby Building, Edmung Halley Road, Oxford Science Park, Oxford, UK) (stock concentration 100 tests, 2 mL stock volume is diluted 1 in 5). The plate was placed on ice for 1 hour in the dark. The cells were then fixed using 200 uL/well of 1×FACS (Flow Activated Cell Sorting) Lyse solution (Becton and Dickinson-BD) and on ice for 20 minutes in the dark. The plate was centrifuged at 1600 rpm for 5 minutes and re-suspended with 200 uL of ice cold PBS. This step was repeated twice and on the final step the plate was re-suspended with 50 uL of ice cold -PBS for flow Cytometric analysis.
Samples were run on a Becton and Dickinson (BD)-Acurri C6 Flow Cytometer using a HyperCyt sampling apparatus (IntelliCyt) with a flow rate 2 uL/sec. CD11b upregulation is monitored in neutrophils and identified using a combination of both side scatter and CD16 expression.

Row | IC50 (recombinant human CXCR2) [nM] | IC50 [1] [nM] | Structure (SMILES)
1 | ≤ 1 | 25.1 to 2510 | CC1=CCC[C@H]1NC(=O)Nc1ccc(C#N)c(S(=O)(=O)C(C)(C)F)c1O [Compound 123, (R)-1-(4-cyano-3-((2-fluoropropan-2-yl)sulfonyl)-2-hydroxyphenyl)-3-(2-methylcyclopent-2-en-1-yl)urea]
2 | ≤ 10 | 25.1 to 2510 | CC1=CCC[C@H]1NC(=O)Nc1ccc(Cl)c(S(=O)(=O)C(F)(F)CN(C)C)c1O [Compound 136, (R)-1-(4-chloro-3-((2-(dimethylamino)-1,1-difluoroethyl)sulfonyl)-2-hydroxyphenyl)-3-(2-methylcyclopent-2-en-1-yl)urea]
3 | ≤ 1 | 25.1 to 2510 | CO[C@H]1C[C@@H](S(=O)(=O)c2c(Cl)ccc(NC(=O)N[C@@H]3CCC=C3C)c2O)C1 [Compound 146, 1-(4-chloro-2-hydroxy-3-((cis-3-methoxycyclobutyl)sulfonyl)phenyl)-3-((R)-2-methylcyclopent-2-en-1-yl)urea]
4 | ≤ 1 | 25.1 to 2510 | CCC1(S(=O)(=O)c2c(Cl)ccc(NC(=O)N[C@@H]3CCC=C3C)c2O)CCOCC1 [Compound 119, (R)-1-(4-chloro-3-((4-ethyltetrahydro-2H-pyran-4-yl)sulfonyl)-2-hydroxyphenyl)-3-(2-methylcyclopent-2-en-1-yl)urea]
5 | ≤ 10 | 25.1 to 2510 | O=C(Nc1ccc(Cl)c(S(=O)(=O)[C@H]2C[C@@H](O)C2)c1O)NC1CCC=C1Cl (stereo partly drawn) [Compound 165, 1-(4-chloro-2-hydroxy-3-((cis-3-hydroxycyclobutyl)sulfonyl)phenyl)-3-(2-chlorocyclopent-2-en-1-yl)urea]
